Data from patent publication US6670446B1, “N1 modified glycopeptides” (Eli Lilly and Company, priority 1998, dated 2003).

Assays:
Format in all cases: cell-based
[1] = tested on: Sensitive Enterococcus faecium and faecalis; experiment: MIC, standard broth micro-dilution assay, Sensitive; conditions: geometric mean of 4-6 isolates
Protocol: (§1) The antibacterial efficacy of the present compounds is illustrated by Table III. The minimal inhibitory concentrations (MICs) were determined using a standard broth micro-dilution assay.

[2] = tested on: Haemophilus influenzae RD; experiment: MIC, standard broth micro-dilution assay, HFRD
Protocol: as §1

[3] = tested on: Escherichia coli EC14; experiment: MIC, standard broth micro-dilution assay, EC 14
Protocol: as §1

[4] = tested on: Staphylococcus haemolyticus 105; experiment: MIC, standard broth micro-dilution assay, SH 105
Protocol: as §1

[5] = tested on: Enterococcus faecalis 276; experiment: MIC, standard broth micro-dilution assay, EF 276
Protocol: as §1

[6] = tested on: Staphylococcus aureus 447; experiment: MIC, standard broth micro-dilution assay, SA 447
Protocol: as §1

[7] = tested on: Staphylococcus aureus X778; experiment: MIC, standard broth micro-dilution assay, SA X778
Protocol: as §1

[8] = tested on: Staphylococcus aureus 489; experiment: MIC, standard broth micro-dilution assay, SA 489
Protocol: as §1

[9] = tested on: Staphylococcus epidermidis 270; experiment: MIC, standard broth micro-dilution assay, SE 270
Protocol: as §1

[10] = tested on: Staphylococcus aureus SA1199A; experiment: MIC, standard broth micro-dilution assay, SA 1199A
Protocol: as §1

[11] = tested on: Staphylococcus aureus S13E
Protocol: as §1

[12] = tested on: Enterococcus faecalis 2041; experiment: MIC, standard broth micro-dilution assay, EF 2041
Protocol: as §1

[13] = tested on: Enterococcus faecium 180-1; experiment: MIC, standard broth micro-dilution assay, EF 180-1
Protocol: as §1

[14] = tested on: Staphylococcus aureus SA1199; experiment: MIC, standard broth micro-dilution assay, SA 1199
Protocol: as §1

[15] = tested on: Resistant Enterococcus faecium and faecalis; experiment: MIC, standard broth micro-dilution assay, Resistant; conditions: geometric mean of 4-6 isolates
Protocol: as §1

[16] = tested on: Enterococcus gallinarum 245; experiment: MIC, standard broth micro-dilution assay, EG 245
Protocol: as §1

[17] = tested on: Staphylococcus aureus X400; experiment: MIC, standard broth micro-dilution assay, SA X400
Protocol: as §1

[18] = tested on: Staphylococcus aureus 446; experiment: MIC, standard broth micro-dilution assay, SA 446
Protocol: as §1

[19] = tested on: Staphylococcus aureus 491; experiment: MIC, standard broth micro-dilution assay, SA 491
Protocol: as §1

[20] = tested on: Enterococcus faecium 180; experiment: MIC, standard broth micro-dilution assay, EF 180
Protocol: as §1

[21] = tested on: Staphylococcus haemolyticus 415; experiment: MIC, standard broth micro-dilution assay, SH 415
Protocol: as §1

SMILES	minimal inhibitory concentration (MIC), Sensitive [1]	minimal inhibitory concentration (MIC), HFRD [2]	minimal inhibitory concentration (MIC), EC 14 [3]	minimal inhibitory concentration (MIC), SH 105 [4]	minimal inhibitory concentration (MIC), EF 276 [5]	minimal inhibitory concentration (MIC), SA 447 [6]	minimal inhibitory concentration (MIC), SA X778 [7]	minimal inhibitory concentration (MIC), SA 489 [8]	minimal inhibitory concentration (MIC), SE 270 [9]	minimal inhibitory concentration (MIC), SA 1199A [10]	minimal inhibitory concentration (MIC), SA S13E [11]	minimal inhibitory concentration (MIC), EF 2041 [12]	minimal inhibitory concentration (MIC), EF 180-1 [13]	minimal inhibitory concentration (MIC), SA 1199 [14]	minimal inhibitory concentration (MIC), Resistant [15]	minimal inhibitory concentration (MIC), EG 245 [16]	minimal inhibitory concentration (MIC), SA X400 [17]	minimal inhibitory concentration (MIC), SA 446 [18]	minimal inhibitory concentration (MIC), SA 491 [19]	minimal inhibitory concentration (MIC), EF 180 [20]	further results
CC1OC(OC2c3ccc(c(Cl)c3)Oc3cc4cc(c3OC3OC(CO)C(O)C(O)C3OC3CC(C)(NCc5ccc(-c6ccccc6)cc5)C(O)C(C)O3)Oc3ccc(cc3Cl)C(O)C(NC(=O)C(CCCCNC(=O)OC(C)(C)C)NC(=O)OC(C)(C)C)C(=O)NC(CC(N)=O)C(=O)NC4C(=O)NC3C(=O)NC2C(=O)NC(C(=O)O)c2cc(O)cc(O)c2-c2cc3ccc2O)CC(C)(N)C1O [Example 19, N^1-(N^1N′-DIBOC-D-lysine) derivative of N^DISACC-(p-phenylbenzyl)desleucylA82846B]	2.6	>64	>64	4	2	2	2	1	2	no growth	2	0.5	1	2	64	2	2	2	1	8	minimal inhibitory concentration (MIC), SH 415 [21]: 4
CC1OC(OC2c3ccc(c(Cl)c3)Oc3cc4cc(c3OC3OC(CO)C(O)C(O)C3OC3CC(C)(NCc5ccc(-c6ccc(Cl)cc6)cc5)C(O)C(C)O3)Oc3ccc(cc3Cl)C(O)C(NC(=O)CCCCCCNC(=O)OC(C)(C)C)C(=O)NC(CC(N)=O)C(=O)NC4C(=O)NC3C(=O)NC2C(=O)NC(C(=O)O)c2cc(O)cc(O)c2-c2cc3ccc2O)CC(C)(N)C1O (stereo not drawn) [Example 9, N^1- [7-(tert-butoxycarboxamido)-n-heptanoyl]-N^DISACC-[p-(p-chlorophenyl)benzyl]desleucylA82846B]	0.66	>64	>64	0.5	1	2	1	1	1	0.25	1	0.5	0.5	1	4.8	1	2	2	1	2	minimal inhibitory concentration (MIC), SH 415 [21]: 1
CC(C)CC(NC(=O)OC(C)(C)C)C(=O)NC1C(=O)NC(CC(N)=O)C(=O)NC2C(=O)NC3C(=O)NC(C(=O)NC(C(=O)O)c4cc(O)cc(O)c4-c4cc3ccc4O)C(OC3CC(C)(N)C(O)C(C)O3)c3ccc(c(Cl)c3)Oc3cc2cc(c3OC2OC(CO)C(O)C(O)C2OC2CC(C)(NCc3ccc(-c4ccccc4)cc3)C(O)C(C)O2)Oc2ccc(cc2Cl)C1O [Example 18, N^1-(N-BOC-D-leucine) derivative of N^DISACC-(p-phenylbenzyl)desleucylA82846B]	0.87	16	>64	1	0.5	0.5	0.25	0.125	0.25	no growth	0.5	≦.06	0.5	0.5	27	1	0.25	0.5	≦.06	2	minimal inhibitory concentration (MIC), SH 415 [21]: 1
CC1OC(OC2c3ccc(c(Cl)c3)Oc3cc4cc(c3OC3OC(CO)C(O)C(O)C3OC3CC(C)(NCc5ccc(-c6ccccc6)cc5)C(O)C(C)O3)Oc3ccc(cc3Cl)C(O)C(NC(=O)CCCCCCCc3ccccc3)C(=O)NC(CC(N)=O)C(=O)NC4C(=O)NC3C(=O)NC2C(=O)NC(C(=O)O)c2cc(O)cc(O)c2-c2cc3ccc2O)CC(C)(N)C1O (stereo not drawn) [Example 3, N^1-(8-phenyl-n-octanoyl)-N^DISACC-(p-phenylbenzyl)desleucylA82846B]	2.6	>64	>64	1	0.5	1	1	1	1	0.5	2	0.5	≦.06	1	6.7	2	1	1	1	1	minimal inhibitory concentration (MIC), SH 415 [21]: 2
CC1OC(OC2c3ccc(c(Cl)c3)Oc3cc4cc(c3OC3OC(CO)C(O)C(O)C3OC3CC(C)(NCc5ccc(-c6ccccc6)cc5)C(O)C(C)O3)Oc3ccc(cc3Cl)C(O)C(NC(=O)C(Cc3c[nH]c5ccccc35)NC(=O)OC(C)(C)C)C(=O)NC(CC(N)=O)C(=O)NC4C(=O)NC3C(=O)NC2C(=O)NC(C(=O)O)c2cc(O)cc(O)c2-c2cc3ccc2O)CC(C)(N)C1O [Example 25, N^1-(N-BOC-D-tryptophan) derivative of N^DISACC-(p-phenylbenzyl)desleucylA82846B]	1.3	>64	>64	2	2	2	2	1	2	0.5	2	1	≦.06	1	27	2	2	4	2	8	minimal inhibitory concentration (MIC), SH 415 [21]: 4
CC1OC(OC2c3ccc(c(Cl)c3)Oc3cc4cc(c3OC3OC(CO)C(O)C(O)C3OC3CC(C)(NCc5ccc(-c6ccccc6)cc5)C(O)C(C)O3)Oc3ccc(cc3Cl)C(O)C(NC(=O)C(Cc3ccc(Cl)cc3)NC(=O)OC(C)(C)C)C(=O)NC(CC(N)=O)C(=O)NC4C(=O)NC3C(=O)NC2C(=O)NC(C(=O)O)c2cc(O)cc(O)c2-c2cc3ccc2O)CC(C)(N)C1O [Example 21, N^1-[N-BOC-D-3-(p-chlorophenyl)alanine] derivative of N^DISACC-(p-phenylbenzyl)desleucylA82846B]	1.5	2	>64	2	1	0.5	0.5	0.25	0.5	no growth	0.5	0.5	0.5	0.5	11	1	0.5	0.5	0.5	1	minimal inhibitory concentration (MIC), SH 415 [21]: 2
